Assay results published in US12016833B2 (ACEBiomed, Inc., priority 2020, dated 2024).
Where two headings read alike, the source gives them in different places.

How the values were obtained:
AMPK [1] = conditions: drug treatment for 7 hours; FIG. 7
ACC [2] = conditions: rat AML12 liver cell line; drug treatment for 7 hours; FIG. 7
obesity-induced rats [3] = conditions: HFD rats
Method: (§1) The drugs were administered with a high fat diet for a total of 6 weeks, and administered by oral gavage 3 times a week.

obesity-induced rats [4] = conditions: HFD rats; remark: listed apart in the source
Method: as §1

AMPK [5] = conditions: HFD rats; colchicine 100 μg/kg alone or with metformin 100 mg/kg; FIG. 6
Method: as §1

[6] = HFD rats; colchicine (10 μg/kg) alone or colchicine (10 μg/kg)/metformin (50 mg/kg), oral gavage 3 times a week, 6 weeks; FIG. 2
Method: as §1

ACC [7] = conditions: HFD rats; colchicine 100 μg/kg alone or with metformin 100 mg/kg; FIG. 6
Method: as §1

obesity-induced rats [8] = assay: Fat accumulated in liver tissue, oil red O staining; assay type: in vivo; conditions: HFD rats; FIG. 5
From the text: In addition, in order to examine a quantitative change of fat accumulated in the liver tissues of the rats, the fat was confirmed by staining using an oil red O method, and the results were shown in FIG. 5.

obesity-induced rats [9] = assay: Anatomical test of liver cross-sections by H&E staining; assay type: in vivo; conditions: HFD rats; colchicine 100 μg/kg alone or with metformin 100 mg/kg; FIG. 4
From the text: For the anatomical test of the cross-sections of the livers of the rats, H&E staining was applied, and the results were shown in FIG. 4.

obesity-induced rats [10] = conditions: HFD rats; remark: listed apart in the source
Method: as §1

[11] = colchicine 10 μg/kg alone, Table 1
[12] = colchicine 50 μg/kg alone, Table 1
[13] = colchicine 100 μg/kg alone, Table 1
[14] = colchicine 100 μg/kg alone, Table 2
[15] = colchicine 200 μg/kg alone, Table 1
[16] = colchicine 10 μg/kg alone, Table 3
[17] = colchicine 50 μg/kg alone, Table 3
[18] = colchicine 100 μg/kg alone, Table 3
[19] = colchicine 100 μg/kg alone, Table 4
[20] = colchicine 200 μg/kg alone, Table 3

For `COc1cc2c(c(OC)c1OC)-c1ccc(OC)c(=O)cc1[C@@H](NC(C)=O)CC2` [Colchicine], the “activation of AMPK” value (AMPK [1]) was “increased”, the “activation of ACC” value (ACC [2]) was “increased” and the Ballooning degeneration (obesity-induced rats [3]; FIG. 3) was “reduced”. The Portal inflammation (obesity-induced rats [3]; FIG. 3) was “reduced”, the macrovesicular steatosis (obesity-induced rats [3]; FIG. 3) was “no effect” and the microvesicular steatosis (obesity-induced rats [3]; FIG. 3) was “reduced”. For the same compound, the Ballooning degeneration (obesity-induced rats [3]; [11]) was 2, the Fatty necrosis (obesity-induced rats [3]; [11]) was 3 and the Fibrosis (obesity-induced rats [3]; [11]) was 3. The Portal inflammation (obesity-induced rats [3]; [11]) was 2, the Total score (obesity-induced rats [3]; [11]) was 10 and the Ballooning degeneration (obesity-induced rats [3]; [12]) was 2. The Fatty necrosis (obesity-induced rats [3]; [12]) was 2, the Fibrosis (obesity-induced rats [3]; [12]) was 2 and the Portal inflammation (obesity-induced rats [3]; [12]) was 2. For the same compound, the Total score (obesity-induced rats [3]; [12]) was 8, the Ballooning degeneration (obesity-induced rats [3]; [13]) was 1 and the Fatty necrosis (obesity-induced rats [3]; [13]) was 2. For the same compound, the Fibrosis (obesity-induced rats [3]; [13]) was 1, the Portal inflammation (obesity-induced rats [3]; [13]) was 1 and the Total score (obesity-induced rats [3]; [13]) was 5. The Ballooning degeneration (obesity-induced rats [3]; [14]) was 1, the Fatty necrosis (obesity-induced rats [3]; [14]) was 2 and the Fibrosis (obesity-induced rats [3]; [14]) was 1. It also gave a Portal inflammation (obesity-induced rats [3]; [14]) of 2, a Total score (obesity-induced rats [3]; [14]) of 6 and a Ballooning degeneration (obesity-induced rats [3]; [15]) of 2. It also gave a Fatty necrosis (obesity-induced rats [3]; [15]) of 2, a Fibrosis (obesity-induced rats [3]; [15]) of 1 and a Portal inflammation (obesity-induced rats [3]; [15]) of 2. The Total score (obesity-induced rats [3]; [15]) was 7, the ALT (obesity-induced rats [4]; [16]) was 1742.57 ± 102.71 U/L and the AST (obesity-induced rats [4]; [16]) was 1766.90 ± 90.48 U/L. For the same compound, the Total protein (obesity-induced rats [4]; [16]) was 5.07 ± 0.30 g/dL, the ALT (obesity-induced rats [4]; [17]) was 1602.38 ± 61.31 U/L and the AST (obesity-induced rats [4]; [17]) was 1759.49 ± 61.71 U/L. It also gave a Total protein (obesity-induced rats [4]; [17]) of 5.21 ± 0.33 g/dL, an ALT (obesity-induced rats [4]; [18]) of 1466.48 ± 49.34 U/L and an AST (obesity-induced rats [4]; [18]) of 1614.70 ± 78.28 U/L. The Total protein (obesity-induced rats [4]; [18]) was 5.24 ± 0.13 g/dL, the ALT (obesity-induced rats [4]; [19]) was 1508.64 ± 102.38 U/L and the AST (obesity-induced rats [4]; [19]) was 1574.22 ± 75.98 U/L. It also gave a Total protein (obesity-induced rats [4]; [19]) of 5.13 ± 0.22 g/dL, an ALT (obesity-induced rats [4]; [20]) of 1735.40 ± 86.49 U/L and an AST (obesity-induced rats [4]; [20]) of 1833.70 ± 131.74 U/L. For the same compound, the Total protein (obesity-induced rats [4]; [20]) was 5.09 ± 0.32 g/dL, the “activation of AMPK in liver tissues” value (AMPK [5]) was “partially recovered” and the “change in weights of the whole rats” value [6] was “no significant change”. For the same compound, the “activation of ACC in liver tissues” value (ACC [7]) was “partially recovered”, the “fat accumulation in the liver tissues (oil red O)” value (obesity-induced rats [8]) was “reduced” and the “steatosis in the liver tissues (H&E staining)” value (obesity-induced rats [9]) was “reduced”. For the same compound, the Hydroxyproline (obesity-induced rats [10]; colchicine 10 μg/kg alone, Table 5) was 345.28 ± 8.14 μg/g of liver, the Hydroxyproline (obesity-induced rats [10]; colchicine 50 μg/kg alone, Table 5) was 326.46 ± 14.55 μg/g of liver and the Hydroxyproline (obesity-induced rats [10]; colchicine 100 μg/kg alone, Table 5) was 308.13 ± 5.04 μg/g of liver. The Hydroxyproline (obesity-induced rats [10]; colchicine 100 μg/kg alone, Table 6) was 316.68 ± 13.36 μg/g of liver.
